Results as given in ChEMBL document CHEMBL1145758, “In vivo characterization of A-192411: a novel fungicidal lipopeptide (II)” (2003).
In brackets after ≈: the same amount, converted by molar mass. Starred links: 1 amine or outer side, 2 acyl side, 3 side chain; linkers in the order of their positions; H or OH if unused. Positions of bridges follow the written chain, without caps; N, C: chain ends. Non-standard residues stand in square brackets, D forms with d. Residues, ends and D or L forms follow the SMILES beside them. *: point of attachment. pTerphenylCO(4''-OnC5H11) = CCCCCOc1ccc(-c2ccc(-c3ccc(C(=O)*)cc3)cc2)cc1; X1 = NCC(=O)Nc1cc(CC[C@H](N[*:1])C(=O)[*:2])ccc1O; X2 = NC(N)=N[C@H]1CC(C(=O)[*:2])N([*:1])C1; Hyp = O=C(O)[C@@H]1C[C@@H](O)CN1; Orn = NCCC[C@H](N)C(=O)O

How the values were obtained:
Assay type in all cases: functional
[1] = system: Candida albicans; assay: Minimum inhibitory concentration against Candida albicans (CAF2)
[2] = organism: Rattus norvegicus; assay: Minimum inhibitory concentration against Candida albicans (CCH442) tested in rats
[3] = organism: Mus musculus; assay: Minimum inhibitory concentration against Candida albicans (CCH442) tested in mice
[4] = system: Aspergillus fumigatus; assay: Minimum inhibitory concentration against Aspergillus fumigatus
[5] = system: Candida albicans; assay: Minimum inhibitory concentration against 41 strains of C. albicans; Range is 0.25-1.0 ug/mL

Compound	MIC [1] [µg/mL]	MIC [2] [µg/mL]	MIC [3] [µg/mL]	MIC [4] [µg/mL]	MIC [5] [µg/mL]
CCCCCOc1ccc(-c2ccc(-c3ccc(C(=O)N[C@H]4CCCNC(=O)C5C[C@H](N=C(N)N)CN5C(=O)[C@H]([C@@H](C)O)NC(=O)[C@H](CCc5ccc(O)c(NC(=O)CN)c5)NC(=O)[C@@H]5C[C@@H](O)CN5C(=O)[C@H]([C@@H](C)O)NC4=O)cc3)cc2)cc1 (stereo not given in full) ({pTerphenylCO(4''-OnC5H11)}-[Orn]T[Hyp][X1]T[X2]; lactam 1-C)	0.25 (≈ 0.213 µM)	0.5 (≈ 0.425 µM)	0.5 (≈ 0.425 µM)	> 100	0.25 (≈ 0.213 µM)
OC(Cn1cncn1)(Cn1cncn1)c1ccc(F)cc1F [FLUCONAZOLE]		0.19 (≈ 0.62 µM)			
C[C@@H]1[C@H](O)[C@@H](C)/C=C/C=C/C=C/C=C/C=C/C=C/C=C/[C@H](O[C@@H]2O[C@H](C)[C@@H](O)[C@H](N)[C@@H]2O)C[C@@H]2O[C@](O)(C[C@@H](O)C[C@@H](O)[C@H](O)CC[C@@H](O)C[C@@H](O)CC(=O)O[C@H]1C)C[C@H](O)[C@H]2C(=O)O [AMPHOTERICIN B]	0.5 (≈ 0.541 µM)	1 (≈ 1.08 µM)	1 (≈ 1.08 µM)	0.78 (≈ 0.844 µM)	
